These results are taken from patent US11319299B2, “Substituted carboxamides as inhibitors of WDR5 protein-protein binding” (PROPELLON THERAPEUTICS INC., priority 2016, dated 2022).

Broadly, the Kd is the concentration at which binding is half-saturated.

Structures are written as SMILES. Read-outs that look alike come from different tables or passages of the source.

For this test, the target named is WDR5 (Homo sapiens (Human), UniProt P61964). Put plainly: Surface Plasmon Resonance (SPR) assay, KD and residence time. Format: binding. Conditions: read-out: WDR5 binding affinity (KD).
[1] abbreviates: surface plasmon resonance (SPR).
The mark [2] stands for this setting: surface plasmon resonance (SPR) assay.

`CC1CN(c2cc(F)c(C3=CCCN(c4ncc(C#N)s4)C3)cc2NC(=O)c2c[nH]c(=O)cc2C(F)F)CCN1C` (stereo in doubt) [Example 688, N-[5-[1-(5-cyano-1,3-thiazol-2-yl)-3,6-dihydro-2H-pyridin-5-yl]-4-fluoro-2-[(3R)-3,4-dimethylpiperazin-1-yl]phenyl]-4-(difluoromethyl)-6-oxo-1H-pyridine-3-carboxamide]: under setting [1], the Kd came to 2.49 nM. Take `CC1CN(c2cc(F)c(C3=CCCN(c4ncc(C#N)s4)C3)cc2NC(=O)c2ccc(F)cc2C(F)(F)F)CCN1C` (stereo in doubt) [Example 689, N-[5-[1-(5-cyano-1,3-thiazol-2-yl)-3,6-dihydro-2H-pyridin-5-yl]-4-fluoro-2-[(3R)-3,4-dimethylpiperazin-1-yl]phenyl]-4-fluoro-2-(trifluoromethyl)benzamide]: the Kd under setting [1] came out at 6.28 nM. With `CC1CN(c2cc(F)c(C3=CCN(C(=O)OC4CC(F)(F)C4)CC3)cc2NC(=O)c2c[nH]c(=O)cc2C(F)F)CCN1C` (stereo in doubt) [Example 703, (3,3-difluorocyclobutyl) 4-[5-[[4-(difluoromethyl)-6-oxo-1H-pyridine-3-carbonyl]amino]-2-fluoro-4-[(3R)-3,4-dimethylpiperazin-1-yl]phenyl]-3,6-dihydro-2H-pyridine-1-carboxylate], the Kd under setting [1] turned out to be 1.03 nM.

Turning to `CC1CN(c2cc(F)c(C3=CCCN(C(=O)OC4CC(F)(F)C4)C3)cc2NC(=O)c2c[nH]c(=O)cc2C(F)F)CCN1C` (stereo in doubt) [Example 705, (3,3-difluorocyclobutyl) 5-[5-[[4-(difluoromethyl)-6-oxo-1H-pyridine-3-carbonyl]amino]-2-fluoro-4-[(3R)-3,4-dimethylpiperazin-1-yl]phenyl]-3,6-dihydro-2H-pyridine-1-carboxylate], under setting [1], the Kd turned out to be 2.02 nM.

As for `CC1CN(c2cc(F)c(C3=CCCN(C(=O)OC4CC(F)(F)C4)C3)cc2NC(=O)c2ccc(F)cc2C(F)(F)F)CCN1C` (stereo in doubt) [Example 706, (3,3-difluorocyclobutyl) 5-[2-fluoro-5-[[4-fluoro-2-(trifluoromethyl)benzoyl]amino]-4-[(3R)-3,4-dimethylpiperazin-1-yl]phenyl]-3,6-dihydro-2H-pyridine-1-carboxylate], the Kd under setting [1] was 3.81 nM. The same measure, in the same setting: for `CC1CN(c2cc(F)c(C3=CCN(C(=O)OC4CC(F)(F)C4)CC3)cc2NC(=O)c2ccc(F)cc2C(F)(F)F)CCN1C` (stereo in doubt) [Example 707, (3,3-difluorocyclobutyl) 4-[2-fluoro-5-[[4-fluoro-2-(trifluoromethyl)benzoyl]amino]-4-[(3R)-3,4-dimethylpiperazin-1-yl]phenyl]-3,6-dihydro-2H-pyridine-1-carboxylate] the value was 2.16 nM.

Regarding `CC1CN(c2cc(F)c(C3=CCN(c4ccnc(C#N)n4)CC3)cc2NC(=O)c2c[nH]c(=O)cc2C(F)F)CCN1C` (stereo in doubt) [Example 708, N-[5-[1-(2-cyanopyrimidin-4-yl)-3,6-dihydro-2H-pyridin-4-yl]-4-fluoro-2-[(3R)-3,4-dimethylpiperazin-1-yl]phenyl]-4-(difluoromethyl)-6-oxo-1H-pyridine-3-carboxamide], under setting [1], the Kd was 0.58 nM. Still for that read-out and setting: as for `CC1CN(c2cc(F)c(-c3cnn(CCN4CCOCC4)c3)cc2NC(=O)c2c[nH]c(=O)cc2C(F)(F)F)CCN1C` (stereo in doubt) [Example 714, N-[4-fluoro-5-[1-(2-morpholin-4-ylethyl)pyrazol-4-yl]-2-[(3R)-3,4-dimethylpiperazin-1-yl]phenyl]-6-oxo-4-(trifluoromethyl)-1H-pyridine-3-carboxamide], the figure is 2.76 nM; as for `CC1CN(c2cc(F)c(-c3cnn(CCN4CCOCC4)c3)cc2NC(=O)c2cn(C)c(=O)cc2C(F)F)CCN1C` (stereo in doubt) [Example 715, 4-(difluoromethyl)-N-[4-fluoro-5-[1-(2-morpholin-4-ylethyl)pyrazol-4-yl]-2-[(3R)-3,4-dimethylpiperazin-1-yl]phenyl]-1-methyl-6-oxopyridine-3-carboxamide], 10.9 nM; as for `CC1CN(c2cc(F)c(-c3ccnc(N4CCOCC4)n3)cc2NC(=O)c2c[nH]c(=O)cc2C(F)(F)F)CCN1C` (stereo in doubt) [Example 718, N-[4-fluoro-5-(2-morpholin-4-ylpyrimidin-4-yl)-2-[(3R)-3,4-dimethylpiperazin-1-yl]phenyl]-6-oxo-4-(trifluoromethyl)-1H-pyridine-3-carboxamide], 1.09 nM.

Turning to `CC1CN(c2cc(F)c(-c3cccc(N4CCOCC4)n3)cc2NC(=O)c2c[nH]c(=O)cc2C(F)(F)F)CCN1C` (stereo in doubt) [Example 719, N-[4-fluoro-5-(6-morpholin-4-ylpyridin-2-yl)-2-[(3R)-3,4-dimethylpiperazin-1-yl]phenyl]-6-oxo-4-(trifluoromethyl)-1H-pyridine-3-carboxamide], the Kd under setting [1] is 1.18 nM. `CC1CN(c2cc(F)c(-c3ccnc(N4CCOCC4)n3)cc2NC(=O)c2c[nH]c(=O)cc2C(F)F)CCN1C` (stereo in doubt) [Example 720, 4-(difluoromethyl)-N-[4-fluoro-5-(2-morpholin-4-ylpyrimidin-4-yl)-2-[(3R)-3,4-dimethylpiperazin-1-yl]phenyl]-6-oxo-1H-pyridine-3-carboxamide]: the Kd under setting [1] was 1.31 nM. The same measure, in the same setting: as for `CC1CN(c2cc(F)c(-c3cccc(N4CCOCC4)n3)cc2NC(=O)c2c[nH]c(=O)cc2C(F)F)CCN1C` (stereo in doubt) [Example 721, 4-(difluoromethyl)-N-[4-fluoro-5-(6-morpholin-4-ylpyridin-2-yl)-2-[(3R)-3,4-dimethylpiperazin-1-yl]phenyl]-6-oxo-1H-pyridine-3-carboxamide], the figure is 1.62 nM. For `CC(C)OC(=O)N1CC=C(c2cc(NC(=O)c3c[nH]c(=O)cc3C(F)F)c(N3CCN(C)C(C)C3)cc2F)CC1` (stereo in doubt) [Example 724, propan-2-yl 4-[5-[[4-(difluoromethyl)-6-oxo-1H-pyridine-3-carbonyl]amino]-2-fluoro-4-[(3R)-3,4-dimethylpiperazin-1-yl]phenyl]-3,6-dihydro-2H-pyridine-1-carboxylate], the Kd under setting [1] amounted to 2.82 nM. The same measure, in the same setting: for `CC(C)OC(=O)N1CCC=C(c2cc(NC(=O)c3c[nH]c(=O)cc3C(F)F)c(N3CCN(C)C(C)C3)cc2F)C1` (stereo in doubt) [Example 726, propan-2-yl 5-[5-[[4-(difluoromethyl)-6-oxo-1H-pyridine-3-carbonyl]amino]-2-fluoro-4-[(3R)-3,4-dimethylpiperazin-1-yl]phenyl]-3,6-dihydro-2H-pyridine-1-carboxylate] the value was 2.1 nM; for `CC(C)OC(=O)N1CC=C(c2cc(NC(=O)c3ccc(F)cc3C(F)(F)F)c(N3CCN(C)C(C)C3)cc2F)CC1` (stereo in doubt) [Example 727, propan-2-yl 4-[2-fluoro-5-[[4-fluoro-2-(trifluoromethyl)benzoyl]amino]-4-[(3R)-3,4-dimethylpiperazin-1-yl]phenyl]-3,6-dihydro-2H-pyridine-1-carboxylate], 2.46 nM; for `CC(C)OC(=O)N1CCC=C(c2cc(NC(=O)c3ccc(F)cc3C(F)(F)F)c(N3CCN(C)C(C)C3)cc2F)C1` (stereo in doubt) [Example 728, propan-2-yl 5-[2-fluoro-5-[[4-fluoro-2-(trifluoromethyl)benzoyl]amino]-4-[(3R)-3,4-dimethylpiperazin-1-yl]phenyl]-3,6-dihydro-2H-pyridine-1-carboxylate], 3.55 nM. The same measure, in the same setting: for `C[C@@H]1CN(c2cc(F)c(-c3cnc(N4CCOC[C@H]4C)nc3)cc2NC(=O)c2ccc(F)cc2C(F)(F)F)CCN1C` (stereo in doubt) [Example 736, 4-fluoro-N-[4-fluoro-2-[(3R)-3,4-dimethylpiperazin-1-yl]-5-[2-[(3R)-3-methylmorpholin-4-yl]pyrimidin-5-yl]phenyl]-2-(trifluoromethyl)benzamide] the value was 0.29 nM; for `CC1CN(c2cc(F)c(-c3ccnc(N4C[C@@H](C)O[C@@H](C)C4)n3)cc2NC(=O)c2ccc(F)cc2C(F)(F)F)CCN1C` (stereo in doubt) [Example 739, 4-fluoro-N-[4-fluoro-5-[2-[(2R,6S)-2,6-dimethylmorpholin-4-yl]pyrimidin-4-yl]-2-[(3R)-3,4-dimethylpiperazin-1-yl]phenyl]-2-(trifluoromethyl)benzamide], 3 nM; for `CC1CN(c2cc(F)c(-c3cccc(N4CCNCC4)n3)cc2NC(=O)c2c[nH]c(=O)cc2C(F)(F)F)CCN1C` (stereo in doubt) [Example 742, N-[4-fluoro-5-(6-piperazin-1-ylpyridin-2-yl)-2-[(3R)-3,4-dimethylpiperazin-1-yl]phenyl]-6-oxo-4-(trifluoromethyl)-1H-pyridine-3-carboxamide], 2.87 nM. Turning to `CC(=O)Nc1cc(C(F)(F)F)c(C(=O)Nc2cc(-c3cnc(N4CCOCC4)nc3)c(F)cc2N2C[C@@H](C)N(C)[C@@H](C)C2)cn1` [Example 27, 6-acetamido-N-[4-fluoro-5-(2-morpholin-4-ylpyrimidin-5-yl)-2-[(3R,5S)-3,4,5-trimethylpiperazin-1-yl]phenyl]-4-(trifluoromethyl)pyridine-3-carboxamide], the Kd was found to be 294 nM (SPR, Table 2) and 294 nM under setting [2]. Regarding `C[C@@H]1CN(c2cc(C(F)(F)F)c(-c3cnc(N4CCOCC4)nc3)cc2NC(=O)c2c[nH]c(=O)cc2C(F)(F)F)C[C@H](C)N1C` [Example 59, N-[5-(2-morpholin-4-ylpyrimidin-5-yl)-2-[rac-(3R,5S)-3,4,5-trimethylpiperazin-1-yl]-4-(trifluoromethyl)phenyl]-6-oxo-4-(trifluoromethyl)-1H-pyridine-3-carboxamide], the Kd under setting [2] is greater than 200 nM. Consider `COc1cc(=O)[nH]cc1C(=O)Nc1cc(-c2cnc(N3CCOCC3)nc2)c(F)cc1N1C[C@@H](C)N(C)[C@@H](C)C1` [Example 65, N-[4-fluoro-5-(2-morpholin-4-ylpyrimidin-5-yl)-2-[(3R,5S)-3,4,5-trimethylpiperazin-1-yl]phenyl]-4-methoxy-6-oxo-1H-pyridine-3-carboxamide], for which the Kd under setting [2] turned out to be 57.2 nM.
